Results published in patent publication US11364211B2, “Methods for selecting phosphatase selective and non-selective phosphatase inhibitors” (MEDICAL RESEARCH COUNCIL, priority 2015, dated 2022).
Entries after “also recorded” stand apart in the source; their conditions may differ.

Columns and labels:
[1] = tested on: eIF2α phosphorylation in HeLa cells; test: eIF2α phosphorylation in cells in the absence of stress (immunoblot); assay type: cell-based, human; settings: for eIF2α phosphorylation in the absence of stress: human/HeLa cells, basal conditions, TST3 at 10 μM
Experimental: For immunoblots, HeLa cells (80,000 cells/ml) were plated in 12-well plates 24 hours before each experiment. Immediately after the indicated treatments, cells were lysed in 75 μl Laemmli Buffer, boiled at 95° C. for 5 minutes and sonicated. Proteins were separated and analysed as described (Tsaytler et al., Science, 332, 91-94, 2011) with the following antibodies: phospho-elf2α [pS52] and PPP1R15A/GADD34 (10449-1-AP; ProteinTech Group, 1/1000 dilution).
Human cells were treated with a PPP1R15B inhibitor and eIF2α phosphorylation was monitored over time. […] This was manifested between 1 and 7.5 hours after addition of the compound of Example 1. […] Indeed, the inventors noticed that PPP1R15A was induced at the late time points following addition of the compound of Example 1 (see Assay 3). […] Furthermore, this establishes that the compound of Example 1 spares PPP1R15A. This assay can serve to identify other selective PPP1R15B inhibitors.
Cells (90,000 cells/ml) were plated in a 24-well plate and treated as indicated. At the end of treatment cells were lysed in 150 μl Laemmli Buffer. Lysates were boiled at 95° C. for 5 minutes, sonicated and resolved on 4-12% Bolt Bis-Tris Plus Gels (Thermo Fisher Scientific). Proteins were transferred to the nitrocellulose membrane using the iBlot 2 system (Thermo Fisher Scientific) and analysed using the following antibodies: e-IF2α-P (44-728G, Thermo Fisher Scientific, 1:1000), e-IF2α (ab5369, Abcam, 1:1000), tubulin (T5168, Sigma-Aldrich, 1:4000), BiP (610978, BD Biosciences Pharmingen, 1:1000), ATF4 (sc-200, Santa Cruz Biotechnology, 1:500), Ppp1r15a (10449-1-AP, Proteintech, 1:1000) and Ppp1r15b (14634-1-AP, Proteintech, 1:1000). Proteins were visualized using ECL Prime (GE Healthcare).

[2] = target: T1, PPP1R15B-PP1 complex (Homo sapiens, UniProt Q5SWA1); test: SPR steady-state binding to R15B-PP1c holophosphatase on streptavidin chip; settings: SPR
T1 construct: 340-698 of PPP1R15B were His-tagged and cloned into pMAL-c5x; made in house; host or cells: R15B fragment: E. coli BL21-Gold; BAP-PP1γ: Sf9 insect cells (baculovirus)
Experimental: The streptavidin coated surface was activated by 1 min injection with a solution of 50 mM NaOH and 1 M NaCl. Biotin-PP1 was diluted in the running buffer (50 mM Tris pH 7.5, 100 mM NaCl, 0.1 mM EGTA, 1 mM MnCl2, 0.05% Tween 20) and injected at approximately 300 nM concentration directly to streptavidin coated surface for 100 sec or to reach immobilization level of biotin-PP1 corresponding to ˜7000 RU. A blank immobilization was performed for one of the SA sensor chip surface to use as a reference.
With minor deviations, the same procedure and conditions were used in all binding experiments. Small molecules were stored as 50 mM stock solutions in 100% DMSO. Prior to determining binding constants, serial dilutions of either 12 or 8 concentrations of the compounds were prepared in the running buffer in a 96-well plate. […] Then, without regenerating the surface, the compound dilution series was injected onto the surface of the chip Sensorgrams were analyzed using the Biacore T200 evaluation software and the binding constants determined based on a steady-state model. Kinetic experiments are carried out using different concentrations of the compound and their respective equilibrium binding levels determined.
Surface Plasmon Resonance (SPR) was used to measure the binding affinity of compounds to the PPP1R15A/B-PP1 phosphatase complex. Biotin acceptor peptide (BAP) was fused to the N-terminus of PP1γ, which enables the biotinylation of the BAP-tagged protein in Sf9 insect cells. After purification the BAP-PP1γ protein was captured on a streptavidin sensor chip (SA-chip, GE healthcare) to a response level of ˜5.000 RU. Using controlled biotinylation enables orientated and uniform immobilization on the sensor chip surface. The PP1γ was then used to capture PPP1R15A/B and form a holophosphatase complex on the surface of the streptavidin chip. This complex can then be used to test binding of compounds. 10 μM PPP1R15A/B protein concentration was used to form the holophosphatase complex during a 80 s injection. […] After the concentration series (8 or 12 concentrations) is completed the surface is regenerated with 3 M NaCl and we can capture R15A/B again to form a fresh holophosphatase complex to measure a binding of another compound concentration series. Analysing the level of equilibrium binding as a function of concentration gives interaction affinities or steady-state binding affinity (KD).
The streptavidin coated surface was activated by 1 minute injection with a solution of 50 mM NaOH and 1 M NaCl three times at a flow rate of 10 μl/min. bio-GBZ or bio-PP1c was diluted in the running buffer (50 mM Tris pH 7.5, 100 mM NaCl, 0.1 mM EGTA, 0.05% Tween 20, 0.1% DMSO) and injected at approximately 300 nM concentration at a flow rate of 10 μl/min directly to streptavidin coated surface to reach immobilization level of bio-GBZ or bio-PP1c corresponding to ˜200 and 6000 RU, respectively. A blank immobilization was performed for one of the SA sensor chip surface to use as a reference.
With minor deviations, the same procedure and conditions were used in all binding experiments. Small molecules were stored as 50 mM stock solutions in 100% DMSO. Prior to determining binding constants, serial dilutions of either 12 or 8 concentrations of the compounds were prepared in the running buffer in a 96-well plate. […] This was followed by 1 minute stabilization period, to wash off any unspecific binding. Then, without regenerating the surface, the compound dilution series was injected onto the surface of the chip at a flow rate of 30 μl/min for 1 minute, followed by 2 minutes dissociation time. After each dilution series the surface was regenerated using 3 M NaCl for 90 seconds. […] In order to be able to correct for small variations in DMSO concentration between samples, eight solvent samples ranging from 0.06 to 8% DMSO were injected every 50th cycle. The flow cell temperature was 10° C.

[3] = Guanabenz-like side effects: mouse activity after acute dosing; assay type: in vivo; settings: 10 mg/kg oral gavage, 30 minutes following dosing
Experimental: To assess whether of a compound of Example 1 had the side effects of Guanabenz, mice (n>3) were gavaged orally with 10 mg/kg of compound or Guanabenz. Their activity was monitored 30 minutes following dosing.
In order to assess the GBZ-like side effects (due to the adrenergic activity) of treatment the motor performance of mice was monitored after a single administration of TST3. To this end mice were treated with TST3 and left in a cage for 60 minutes. Mice behaviour was monitored every 15 minutes. Mice similarly treated with GBZ were used as a control.

T1 sequence (Q5SWA1 340-698): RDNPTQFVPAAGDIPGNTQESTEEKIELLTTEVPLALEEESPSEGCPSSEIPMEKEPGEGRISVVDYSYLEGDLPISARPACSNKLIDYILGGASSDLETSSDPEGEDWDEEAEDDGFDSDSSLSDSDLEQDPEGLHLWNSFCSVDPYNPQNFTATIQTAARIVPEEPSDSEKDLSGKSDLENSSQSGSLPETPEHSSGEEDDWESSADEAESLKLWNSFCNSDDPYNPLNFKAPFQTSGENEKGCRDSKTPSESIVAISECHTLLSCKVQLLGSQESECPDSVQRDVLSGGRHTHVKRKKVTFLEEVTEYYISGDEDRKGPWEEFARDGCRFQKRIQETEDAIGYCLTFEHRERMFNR
T1 sequence (P36873 whole entry partner, the tested form may be a part): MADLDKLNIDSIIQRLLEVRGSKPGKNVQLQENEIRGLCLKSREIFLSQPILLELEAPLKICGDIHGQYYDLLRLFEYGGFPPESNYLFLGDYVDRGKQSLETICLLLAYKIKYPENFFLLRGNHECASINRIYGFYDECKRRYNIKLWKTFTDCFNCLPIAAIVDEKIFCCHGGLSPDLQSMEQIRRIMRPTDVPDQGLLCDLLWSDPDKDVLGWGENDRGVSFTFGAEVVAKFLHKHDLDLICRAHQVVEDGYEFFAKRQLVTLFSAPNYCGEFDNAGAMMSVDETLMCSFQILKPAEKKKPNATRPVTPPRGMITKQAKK

| Structure (SMILES) | eIF2α phosphorylation in the presence of GBZ ([1]; HeLa cells, TST3+GBZ at 10 μM) | time after addition at which eIF2α phosphorylation returned to basal levels ([1]; absence of stress) [h] | eIF2α phosphorylation in the absence of stress [1] | eIF2α phosphorylation in the absence of stress ([1]; listed as TST3) | binding to R15B-PP1c (in words) [2] | Kd ([2]; steady-state affinity) [nM] | side effects of Guanabenz / activity of mice after dosing ([3]; 10 mg/kg) | binding to R15B-PP1c (in words) ([2]; listed as GBZ) | side effects of Guanabenz / activity of mice after dosing [3] |
| --- | --- | --- | --- | --- | --- | --- | --- | --- | --- |
| [H]/N=C(\N)NN=Cc1cccc(Cl)c1Cl [Example 1, (E)-2-(2,3-dichlorobenzylidene)hydrazine-1-carboximidamide] | persistently induces eIF2α phosphorylation; also recorded: rendered persistent | 10 | induced eIF2α phosphorylation; also recorded: induces a transient phosphorylation of eIF2α | transiently induces eIF2α phosphorylation; also recorded: rapidly and transiently increased eIF2α phosphorylation | bound strongly and selectively | 33 | as active as untreated mice; also recorded: devoid of the side effects of Guanabenz; also recorded: does not cause the side effects of Guanabenz |  |  |
| N=C(N)N/N=C/c1c(Cl)cccc1Cl [Guanabenz, reference compound] |  |  | did not affect |  |  |  |  | not or weakly; also recorded: no binding was detected | did not move |
